The target in one series is T1, FGFR2 (N549H) (Homo sapiens, UniProt P21802, N549H).
T1 construct: purchased Millipore 14-742
Briefly: fluorescent ELISA assay for inhibitors of FGFR2 kinase. In kind it is biochemical. The note with it: Pyk2 peptide substrate, 60 minutes. The gist of the method:
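FGFR2 enzyme (0.5 μM) phosphorylates biotinylated Pyk2 peptide (37 μM) with 12.5 μM ATP added, in Tris-HCl buffer containing 10 mM MgCl2, 2 mM DTT and 75 μM ATP, for 60 min. Peptide captured on streptavidin 30 min at room temperature; phosphotyrosine detected by antibody, alkaline phosphatase secondary and Attophos fluorescence (ex 400/em 595 nm). Inhibition seen as signal decrease.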

A further series has as its system cancer cells. The series can be described thus: MTS cell growth inhibition assay (72 hours). In kind it is cell-based. In a few lines: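 Growth inhibition read as formazan absorbance at 492 nm after 4 h MTS/PMS, following 72 h compound exposure at 37 °C in 1% FBS DMEM (cells pre-seeded 18 h). IC50 = 50% absorbance reduction; inhibition graded in bands.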
Setting [1] is: Homo sapiens, DLD-1, 72 h, DLD-1 cells, read-out: DLD-1 MTS 72 hr at 10 μM.
[2] abbreviates: Homo sapiens, KATO III, 72 h, KATO III cells, read-out: KATO III MTS 72 hr at 10 μM.
[3] abbreviates: Homo sapiens, MDA-MB-231, 72 h, MDA-MB-231 cells, read-out: MDA-MB-231 MTS 72 hr at 10 μM.
Setting [4] is: Homo sapiens, NCI-H1299, 72 h, NCI-H1299 cells, read-out: NCI-H1299 MTS 72 hr at 10 μM.
[5] abbreviates: PaCa-2, 72 h, PACA-2 cells, read-out: PACA-2 MTS 72 hr at 10 μM.

Read-outs that look alike come from different tables or passages of the source.

T1 sequence (P21802 22-821 N549H): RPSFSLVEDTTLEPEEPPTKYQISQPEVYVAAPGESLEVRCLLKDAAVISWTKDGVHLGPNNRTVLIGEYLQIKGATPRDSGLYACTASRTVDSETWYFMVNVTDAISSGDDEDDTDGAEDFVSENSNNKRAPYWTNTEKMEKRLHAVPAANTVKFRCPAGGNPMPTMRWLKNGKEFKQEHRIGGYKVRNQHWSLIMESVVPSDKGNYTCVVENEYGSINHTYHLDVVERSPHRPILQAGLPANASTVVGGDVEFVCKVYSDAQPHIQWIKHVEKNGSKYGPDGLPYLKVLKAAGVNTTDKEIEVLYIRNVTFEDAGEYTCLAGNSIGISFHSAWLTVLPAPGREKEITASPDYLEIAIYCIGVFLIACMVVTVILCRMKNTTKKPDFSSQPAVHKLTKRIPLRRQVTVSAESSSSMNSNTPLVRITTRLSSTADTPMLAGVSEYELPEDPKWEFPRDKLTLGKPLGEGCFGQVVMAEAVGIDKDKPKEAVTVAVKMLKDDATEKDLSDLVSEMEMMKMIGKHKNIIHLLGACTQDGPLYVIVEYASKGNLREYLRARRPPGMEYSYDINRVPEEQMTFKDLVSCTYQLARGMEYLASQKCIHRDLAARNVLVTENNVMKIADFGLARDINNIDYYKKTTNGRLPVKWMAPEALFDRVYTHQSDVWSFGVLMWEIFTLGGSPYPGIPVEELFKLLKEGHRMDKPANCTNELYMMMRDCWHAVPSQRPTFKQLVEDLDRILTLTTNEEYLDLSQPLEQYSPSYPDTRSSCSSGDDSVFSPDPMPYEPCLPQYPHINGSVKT

For orientation: IC50 means the point on the concentration scale where inhibition reaches its midpoint. The term melting point denotes the temperature, or range, at which the solid turns liquid. As to `Nc1nc(NC2Cc3ccccc3N(Cc3ccc(Cl)cc3Cl)C2)c2cn[nH]c2n1` (stereo not drawn) [Compound 4, N^4-(1-(2,4-dichlorobenzyl)-1,2,3,4-tetrahydroquinolin-3-yl)-1H-pyrazolo[3,4-d]pyrimidine-4,6-diamine], the melting point fell in the range of 170 to 174 °C. This compound showed an IC50 against FGFR2 (N549H) of 3.06 µM. In the series on cancer cells (setting [1]), the inhibition at 10 µM is more than 79%. In addition, the inhibition at 10 µM in the series on cancer cells (setting [2]) is more than 79%. Further, the inhibition at 10 µM with cancer cells (setting [3]) is more than 79%. The inhibition at 10 µM in the series with cancer cells (setting [4]) is more than 79%. Besides, the inhibition at 10 µM with cancer cells (setting [5]) is more than 79%.

`Nc1nc(NC2Cc3ccccc3N(CCc3ccccc3)C2)c2cn[nH]c2n1` (stereo not drawn) [Compound 2, N^4-(1-(2-phenylethyl)-1,2,3,4-tetrahydroquinolin-3-yl)-1H-pyrazolo[3,4-d]pyrimidine-4,6-diamine] returned a melting point of 117 to 122 °C. This compound yielded an IC50 against FGFR2 (N549H) of 0.17 µM. In addition, the inhibition at 10 µM with cancer cells (setting [1]) lay within 50 to 79%. Moreover, the inhibition at 10 µM with cancer cells (setting [2]) is 50 to 79%. In addition, in the series on cancer cells (setting [3]), the inhibition at 10 µM is less than 50%. For the same compound, in the series with cancer cells (setting [4]), the inhibition at 10 µM fell in the range of 50 to 79%. Moreover, the inhibition at 10 µM with cancer cells (setting [5]) was less than 50%.

For the compound `Nc1nc(N[C@H]2Cc3ccccc3N(Cc3ccc(F)cc3)C2)c2cn[nH]c2n1` [Compound 8, N^4-((3S)-1-(4-fluorobenzyl)-1,2,3,4-tetrahydroquinolin-3-yl)-1H-pyrazolo[3,4-d]pyrimidine-4,6-diamine], the melting point fell in the range of 78 to 80 °C. Further, it took 11 µM to reach half-maximal inhibition on FGFR2 (N549H) (IC50). The inhibition at 10 µM in the series with cancer cells (setting [1]) is more than 79%. The inhibition at 10 µM in the series on cancer cells (setting [2]) was more than 79%. Moreover, in the series with cancer cells (setting [3]), the inhibition at 10 µM was less than 50%. Moreover, the inhibition at 10 µM in the series on cancer cells (setting [4]) is less than 50%. In the series on cancer cells (setting [5]), the inhibition at 10 µM is less than 50%.

Compound `Nc1nc(NC2Cc3ccccc3N(C(=O)c3ccccc3)C2)c2cn[nH]c2n1` (stereo not drawn) [Compound 12, (3-(6-amino-1H-pyrazolo[3,4-d]pyrimidin-4-ylamino)-3,4-dihydroquinolin-1(2H)-yl)(phenyl)methanone] gave a melting point of 155 to 164 °C. For the same compound, the 50% inhibitory concentration (IC50) against FGFR2 (N549H) was 21 µM. Moreover, the inhibition at 10 µM in the series on cancer cells (setting [1]) is less than 50%. The inhibition at 10 µM in the series with cancer cells (setting [2]) is less than 50%. Moreover, the inhibition at 10 µM in the series on cancer cells (setting [3]) was less than 50%. For the same compound, the inhibition at 10 µM in the series on cancer cells (setting [4]) was less than 50%. For the same compound, the inhibition at 10 µM with cancer cells (setting [5]) was less than 50%.

Regarding `Nc1nc(NC2Cc3ccccc3N(c3ccccc3)C2)c2cn[nH]c2n1` (stereo not drawn) [Compound 11, N^4-(1-phenyl-1,2,3,4-tetrahydroquinolin-3-yl)-1H-pyrazolo[3,4-d]pyrimidine-4,6-diamine], the melting point lay within 88 to 92 °C. This compound also yielded an IC50 against FGFR2 (N549H) of 2.08 µM. Also, the inhibition at 10 µM in the series with cancer cells (setting [1]) is less than 50%. Moreover, the inhibition at 10 µM with cancer cells (setting [2]) was less than 50%. Also, the inhibition at 10 µM in the series on cancer cells (setting [3]) is less than 50%. In addition, in the series with cancer cells (setting [4]), the inhibition at 10 µM was less than 50%. For the same compound, the inhibition at 10 µM in the series on cancer cells (setting [5]) was less than 50%.

For `Nc1nc(NC2Cc3ccccc3N(Cc3cccc(-c4ccccc4)c3)C2)c2cn[nH]c2n1` (stereo not drawn) [Compound 224, N4-(1-(biphenyl-3-ylmethyl)-1,2,3,4-tetrahydroquinolin-3-yl)-1H-pyrazolo[3,4-d]pyrimidine-4,6-diamine], the melting point is 128 to 132 °C. At FGFR2 (N549H), this compound registered an IC50 of 19.3 µM. For the same compound, the inhibition at 10 µM with cancer cells (setting [1]) was more than 79%. Also, the inhibition at 10 µM with cancer cells (setting [2]) was more than 79%. Moreover, the inhibition at 10 µM in the series with cancer cells (setting [3]) was less than 50%. In addition, in the series on cancer cells (setting [4]), the inhibition at 10 µM is more than 79%. The inhibition at 10 µM in the series on cancer cells (setting [5]) is more than 79%.

In the case of `Nc1nc(NC2Cc3ccccc3N(Cc3ccc(F)cc3F)C2)c2cn[nH]c2n1` (stereo not drawn) [Compound 1, N^4-(1-(2,4-difluorobenzyl)-1,2,3,4-tetrahydroquinolin-3-yl)-1H-pyrazolo[3,4-d]pyrimidine-4,6-diamine], the melting point is 110 to 114 °C. At FGFR2 (N549H), the IC50 was 1.81 µM. Moreover, the inhibition at 10 µM with cancer cells (setting [1]) was more than 79%. Besides, the inhibition at 10 µM in the series on cancer cells (setting [2]) is more than 79%. Also, the inhibition at 10 µM in the series with cancer cells (setting [3]) was less than 50%. In addition, the inhibition at 10 µM in the series with cancer cells (setting [4]) lay within 50 to 79%. Besides, the inhibition at 10 µM with cancer cells (setting [5]) was 50 to 79%.

Regarding `Nc1nc(N[C@@H]2Cc3ccccc3N(Cc3ccc(F)cc3)C2)c2cn[nH]c2n1` [Compound 9, (R)—N4-(1-(4-fluorobenzyl)-1,2,3,4-tetrahydroquinolin-3-yl)-1H-pyrazolo[3,4-d]pyrimidine-4,6-diamine], the melting point lay in the range of 140 to 143 °C. On FGFR2 (N549H), this compound registered an IC50 of 0.22 µM. In addition, in the series with cancer cells (setting [1]), the inhibition at 10 µM lay in the range of 50 to 79%. In addition, in the series with cancer cells (setting [2]), the inhibition at 10 µM is more than 79%. In addition, the inhibition at 10 µM with cancer cells (setting [3]) was less than 50%. In the series on cancer cells (setting [4]), the inhibition at 10 µM fell in the range of 50 to 79%. In addition, the inhibition at 10 µM in the series with cancer cells (setting [5]) lay within 50 to 79%.

In turn, `Nc1nc(NC2Cc3ccccc3N(C(=O)c3ccc(Cl)cc3Cl)C2)c2cn[nH]c2n1` (stereo not drawn) [Compound 13, (3-(6-amino-1H-pyrazolo[3,4-d]pyrimidin-4-ylamino)-3,4-dihydroquinolin-1(2H)-yl)(2,4-dichlorophenyl)methanone] yielded a melting point of 165 to 173 °C. Besides, the IC50 on FGFR2 (N549H) stood at 17.9 µM. Further, the inhibition at 10 µM with cancer cells (setting [1]) is less than 50%. In addition, the inhibition at 10 µM in the series with cancer cells (setting [2]) is less than 50%. Besides, the inhibition at 10 µM with cancer cells (setting [3]) is less than 50%. In the series on cancer cells (setting [4]), the inhibition at 10 µM is less than 50%. Moreover, the inhibition at 10 µM in the series with cancer cells (setting [5]) was less than 50%.

Turning to `Nc1nc(NC2Cc3ccccc3N(S(=O)(=O)c3cccc4nsnc34)C2)c2cn[nH]c2n1` (stereo not drawn) [Compound 17, N4-(1-(benzo[c][1,2,5]thiadiazol-4-ylsulfonyl)-1,2,3,4-tetrahydroquinolin-3-yl)-1H-pyrazolo[3,4-d]pyrimidine-4,6-diamine], the IC50 against FGFR2 (N549H) worked out at 15.3 µM. The inhibition at 10 µM with cancer cells (setting [1]), with cancer cells (setting [2]), in the series on cancer cells (setting [3]), in the series on cancer cells (setting [4]) and in the series on cancer cells (setting [5]) was less than 50% each time.

In the case of `Nc1nc(NC2Cc3ccccc3N(S(=O)(=O)c3ccc(Br)cc3)C2)c2cn[nH]c2n1` (stereo not drawn) [Compound 37, N4-(1-(4-bromophenylsulfonyl)-1,2,3,4-tetrahydroquinolin-3-yl)-1H-pyrazolo[3,4-d]pyrimidine-4,6-diamine], on FGFR2 (N549H), half-maximal inhibition (IC50) was put at 3.6 µM. In addition, the inhibition at 10 µM in the series on cancer cells (setting [1]), with cancer cells (setting [2]), in the series on cancer cells (setting [3]), in the series on cancer cells (setting [4]) and with cancer cells (setting [5]) was less than 50% in each case.

The compound `Nc1nc(NC2Cc3ccccc3N(S(=O)(=O)c3cccc(Cl)c3)C2)c2cn[nH]c2n1` (stereo not drawn) [Compound 26, N4-(1-(3-chlorophenylsulfonyl)-1,2,3,4-tetrahydroquinolin-3-yl)-1H-pyrazolo[3,4-d]pyrimidine-4,6-diamine] displayed an IC50 against FGFR2 (N549H) of 0.03 µM. Further, the inhibition at 10 µM was more than 79% in the series on cancer cells (setting [1]); more than 79% in the series on cancer cells (setting [2]); 50 to 79% with cancer cells (setting [3]); less than 50% in the series with cancer cells (setting [4]); more than 79% in the series on cancer cells (setting [5]).

On FGFR2 (N549H), `Nc1nc(NC2Cc3ccccc3N(S(=O)(=O)c3ccccc3F)C2)c2cn[nH]c2n1` (stereo not drawn) [Compound 45, N4-(1-(2-fluorophenylsulfonyl)-1,2,3,4-tetrahydroquinolin-3-yl)-1H-pyrazolo[3,4-d]pyrimidine-4,6-diamine] had an IC50 of 0.38 µM. Also, the inhibition at 10 µM with cancer cells (setting [1]), in the series with cancer cells (setting [2]), in the series with cancer cells (setting [3]), with cancer cells (setting [4]) and in the series on cancer cells (setting [5]) was less than 50% in each case.

`Cc1noc(C)c1S(=O)(=O)N1CC(Nc2nc(N)nc3[nH]ncc23)Cc2ccccc21` (stereo not drawn) [Compound 15, N4-(1-(3,5-dimethylisoxazol-4-ylsulfonyl)-1,2,3,4-tetrahydroquinolin-3-yl)-1H-pyrazolo[3,4-d]pyrimidine-4,6-diamine]: on FGFR2 (N549H), the IC50 is more than 30 µM. In addition, the inhibition at 10 µM in the series with cancer cells (setting [1]), with cancer cells (setting [2]), with cancer cells (setting [3]), in the series on cancer cells (setting [4]) and with cancer cells (setting [5]) was more than 79% throughout.

On FGFR2 (N549H), `Nc1nc(NC2Cc3ccccc3N(S(=O)(=O)c3csc4ccccc34)C2)c2cn[nH]c2n1` (stereo not drawn) [Compound 51, N4-(1-(benzo[b]thiophen-3-ylsulfonyl)-1,2,3,4-tetrahydroquinolin-3-yl)-1H-pyrazolo[3,4-d]pyrimidine-4,6-diamine] had an IC50 of 3.85 µM. The inhibition at 10 µM in the series with cancer cells (setting [1]) was less than 50%; in the series on cancer cells (setting [2]) it was 50 to 79%; in the series with cancer cells (setting [3]), less than 50%; in the series with cancer cells (setting [4]), less than 50%; in the series on cancer cells (setting [5]), 50 to 79%.

With `CC(C)(C)c1ccc(S(=O)(=O)N2CC(Nc3nc(N)nc4[nH]ncc34)Cc3ccccc32)cc1` (stereo not drawn) [Compound 33, N4-(1-(4-tert-butylphenylsulfonyl)-1,2,3,4-tetrahydroquinolin-3-yl)-1H-pyrazolo[3,4-d]pyrimidine-4,6-diamine], the IC50 against FGFR2 (N549H) was more than 30 µM. Further, the inhibition at 10 µM with cancer cells (setting [1]) is 50 to 79%; in the series with cancer cells (setting [2]), 50 to 79%; in the series on cancer cells (setting [3]), 50 to 79%; in the series with cancer cells (setting [4]) it was less than 50%; in the series with cancer cells (setting [5]), more than 79%.
